Experimental data reported in US12673052B2, “Combinations for the treatment of cancer” (Exelixis, Inc., priority 2020, dated 2026).
pEC50, pIC50: −log10 of the molar value. Read-outs that look alike come from different tables or passages of the source.

Columns and labels:
MC38 tumor = experiment: Tumor microvessels by CD31 staining in MC38 tumor-bearing animals; format: in vivo, murine
Description: MC38 tumor-bearing animals were treated with a range of Compound 1 doses (PO, qd; 3 mg/kg, 10 mg/kg, 30 mg/kg Compound 1) for 5 days. Tumors were analyzed for the presence of tumor microvessels by CD31 staining. FIG. 1A and FIG. 1B compare the tumor microvessels after administration of different doses of Compared 1 with vehicle.

[1] = Single-dose plasma PK, IV and oral (PEG 400:EtOH:RO water); format: in vivo, dogs
Description: (§1) Plasma PK of Compound 1 was characterized in rats and beagle dogs. Toxicokinetic (TK) evaluations of oral Compound 1 were evaluated in repeat-dose studies in rats and dogs. Plasma protein binding was determined in mouse, rat, dog, monkey, and human plasma in vitro. Biotransformation and metabolite profiling of Compound 1 were investigated in vitro using mouse, rat, dog, monkey, and human liver microsomal fractions and hepatocytes and in vivo in rats and dogs. P-glycoprotein (P-gp) and breast cancer resistance protein (BCRP) transporter interaction studies, in vitro experiments evaluating cytochrome P450 (CYP) induction and inhibition by Compound 1, and CYP and glucuronosyltransferase (UGT) substrate specificity studies of Compound 1 were also performed.
The PK and TK of Compound 1 were assessed in rats and dogs after intravenous (IV; only single dose PK) and oral (PO) administration of Compound 1 in formulations prepared in polyethylene glycol 400 (PEG 400): ethanol (EtOH): reverse osmosis water (RO Water) (45:5:50 v/v/v).
Median time to maximum plasma concentration (Tmax) occurred at approximately 2-3 hours in rats and dogs.
The mean plasma t1/2, z values were approximately 9 hours in rats and 4 hours in dogs. Interspecies scaling based on body weight to predict PK parameters in humans could not be performed because dogs (larger species) cleared Compound 1 faster than rats (smaller species). Therefore, the human PK was projected based on one species (rat). […] This apparent clearance value (CL/F) was used to predict steady-state exposure (AUC and average plasma concentration [Cavg]) in humans for the proposed first-in-human (FIH) starting dose for Study Compound 1-001.

[2] = Permeability in Caco-2 cells; format: in vitro ADME; conditions: human, highly permeable, read-out: apparent permeability coefficient (Papp)
SNU-5 = experiment: Tumor growth inhibition in xenograft model; format: in vivo, CB.17 SCID mice
Description: (§2) Three human tumor cell lines, NCI-H441, MDA-MB-231, and SNU-5, were selected for use in tumor xenograft studies using athymic nude, NSG and CB.17 SCID mice, respectively. Pharmacodynamic modulation of MET phosphorylation was also measured in the NCI-H441 and SNU-5 xenografts. Tumor-bearing mice were orally dosed once-daily for 14 days (qd×14), and the tumors were resected and processed for MET phosphorylation analysis by Western blot. […]

[3] = Repeat-dose toxicity studies (7-day range-finding, definitive 28-day, 14-day recovery); format: in vivo, rats
Description: The nonclinical toxicity of Compound 1 was characterized in dose range-finding 7-day and definitive 28-day repeat-dose studies in rats and dogs, and in in vitro bacterial and mammalian genotoxicity bioassays. Compound 1 was also evaluated in definitive neurobehavioral, respiratory and cardiovascular safety pharmacology studies.
Following a 2-week recovery phase, increased physeal thickness and tooth degeneration persisted but were less severe. These findings are consistent with an on-target pharmacologic VEGFR inhibition by Compound 1.
These microscopic lesions were fully reversible following a 14-day recovery period, and were associated with correlative reversible changes in clinical chemistry markers of hepatic function (eg, <2-fold increase in AST and <5-fold increase in ALT at 10 mg/kg/day).

MDA-MB-231 = experiment: Tumor growth inhibition in xenograft model; format: in vivo, NSG mice
Description: as §2

[4] = In vitro plasma protein binding; format: in vitro ADME, monkey
Description: as §1
(§3) Compound 1 (10 μM) was 97.2 and 97.5% protein bound in monkey and human plasma, respectively.

CYP2D6 = CYP2D6 (Homo sapiens, UniProt P10635); experiment: CYP/UGT substrate specificity (recombinant Supersomes, chemical inhibitors in human liver microsomes); format: in vitro ADME; parameters: purchased; host or cells: recombinant Supersomes; human liver microsomes
CYP2D6, sequence (P10635 whole entry): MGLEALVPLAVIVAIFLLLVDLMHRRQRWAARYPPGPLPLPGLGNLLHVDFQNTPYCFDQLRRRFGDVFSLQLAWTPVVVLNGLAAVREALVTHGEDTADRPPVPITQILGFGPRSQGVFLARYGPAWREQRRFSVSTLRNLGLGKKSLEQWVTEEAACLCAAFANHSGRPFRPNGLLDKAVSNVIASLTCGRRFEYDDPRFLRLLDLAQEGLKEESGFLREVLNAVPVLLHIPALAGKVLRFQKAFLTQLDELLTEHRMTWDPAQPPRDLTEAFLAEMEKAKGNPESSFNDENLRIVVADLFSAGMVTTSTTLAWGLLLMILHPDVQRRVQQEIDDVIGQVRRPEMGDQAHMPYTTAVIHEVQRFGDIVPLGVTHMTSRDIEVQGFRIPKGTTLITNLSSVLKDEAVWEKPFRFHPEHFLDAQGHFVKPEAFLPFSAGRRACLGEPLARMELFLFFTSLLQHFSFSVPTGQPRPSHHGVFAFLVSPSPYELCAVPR
Description: as §1

[5] = In vitro plasma protein binding; format: in vitro ADME; conditions: 0.2 and 1 μM
Description: as §1, §3

hERG channel = hERG channel (Homo sapiens, UniProt Q12809); experiment: In vitro hERG channel inhibition; format: cell-based
hERG channel, sequence (Q12809 whole entry): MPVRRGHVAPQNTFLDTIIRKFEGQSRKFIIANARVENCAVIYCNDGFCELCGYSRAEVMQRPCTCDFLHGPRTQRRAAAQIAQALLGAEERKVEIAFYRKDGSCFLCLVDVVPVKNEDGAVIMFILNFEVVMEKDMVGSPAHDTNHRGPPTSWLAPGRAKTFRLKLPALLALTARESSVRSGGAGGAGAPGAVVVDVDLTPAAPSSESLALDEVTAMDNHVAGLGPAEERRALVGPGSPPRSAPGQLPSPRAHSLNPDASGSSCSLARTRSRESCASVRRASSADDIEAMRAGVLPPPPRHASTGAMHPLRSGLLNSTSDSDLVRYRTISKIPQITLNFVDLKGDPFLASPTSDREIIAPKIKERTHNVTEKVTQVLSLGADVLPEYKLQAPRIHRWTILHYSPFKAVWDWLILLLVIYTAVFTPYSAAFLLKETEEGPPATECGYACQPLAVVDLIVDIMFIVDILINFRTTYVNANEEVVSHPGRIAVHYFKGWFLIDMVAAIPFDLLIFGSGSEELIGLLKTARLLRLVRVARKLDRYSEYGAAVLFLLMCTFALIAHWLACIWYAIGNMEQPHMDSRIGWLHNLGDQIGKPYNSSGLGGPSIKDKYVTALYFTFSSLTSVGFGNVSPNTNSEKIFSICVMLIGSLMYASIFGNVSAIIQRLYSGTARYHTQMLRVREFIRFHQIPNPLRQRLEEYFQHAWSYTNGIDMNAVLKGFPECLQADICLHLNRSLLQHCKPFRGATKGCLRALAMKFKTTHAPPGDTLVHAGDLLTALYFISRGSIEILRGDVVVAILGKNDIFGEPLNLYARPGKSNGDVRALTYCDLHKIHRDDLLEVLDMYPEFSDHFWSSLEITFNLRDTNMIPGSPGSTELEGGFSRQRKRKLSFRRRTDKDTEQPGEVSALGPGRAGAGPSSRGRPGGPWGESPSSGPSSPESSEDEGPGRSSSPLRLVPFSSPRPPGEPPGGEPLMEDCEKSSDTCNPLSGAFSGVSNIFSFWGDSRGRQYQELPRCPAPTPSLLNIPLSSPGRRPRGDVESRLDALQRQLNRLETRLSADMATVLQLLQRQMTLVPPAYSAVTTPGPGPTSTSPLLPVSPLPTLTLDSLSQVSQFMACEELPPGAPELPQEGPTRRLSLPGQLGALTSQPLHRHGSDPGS

[6] = Liver microsomal stability assay; format: in vitro ADME, mouse; conditions: liver microsomes
Description: In the liver microsomal stability assay, CLint was 0.601 mL/min/g liver in mouse, 0.563 mL/min/g liver in rat, 0.315 mL/min/g liver in dog, 0.734 mL/min/g liver in monkey, and 0.639 mL/min/g liver in human. In the hepatocyte stability assay, Compound 1 CLint was 0.373 mL/min/g liver in mouse, 0.285 mL/min/g liver in rat, 1.08 mL/min/g liver in dog, 0.533 mL/min/g liver in monkey, and 0.317 mL/min/g liver in human.

CYP2C8 = experiment: Cytochrome P450 induction (mRNA levels) in fresh primary human hepatocytes; format: in vitro ADME
[7] = 10 mg/kg qd × 14 oral, p-value <0.0001
[8] = 10 mg/kg/day, daily for 4 weeks, reversible

Q: Which results are given for CNC(=O)c1cc2c(Oc3ccc(NC(=O)C4(C(=O)Nc5ccc(F)cc5)CC4)cc3)ccnc2cc1OC [Compound 1, 1-N′-(4-Fluorophenvl)-1-N-[4-[7-methoxy-6-(methylcarbamovl)quinolin-4-yl]oxyphenyl]cyclopropane-1,1-dicarboxamide]?
A: average vessel number (CD31 staining) (MC38 tumor; 30 mg/kg PO qd 5 days, vehicle 26.9): 17.6; presence of tumor microvessels (MC38 tumor; 3, 10, 30 mg/kg PO qd 5 days): Dose-dependent decreases; bioavailability ([1]; beagle, dog, plasma, po, 0.2-0.6 mg/kg, read-out: Oral absolute bioavailability): 47 to 70%; half-life ([1]; beagle, dog, plasma, after oral administration, read-out: terminal phase half-life (t1/2, z)): 1 to 3 h; Tmax ([1]; beagle, dog, plasma, single oral dose, read-out: Median time to maximum plasma concentration (Tmax)): 2 to 3 h; clearance ([1]; beagle, dog, plasma, single-dose IV 0.2-0.6 mg/kg, read-out: mean plasma clearance (CL) (converted)): 6.33 mL/min/kg; half-life ([1]; beagle, dog, plasma, single-dose IV, read-out: mean plasma t1/2, z (converted)): ~4 h; Vd ([1]; beagle, dog, plasma, single-dose IV, read-out: mean volume of distribution at steady-state (Vss)): 1.98 L/kg; plasma clearance in dogs relative to rats ([1]; higher in dogs than in rats): approximately 16 fold; increase of exposure (Cmax and AUC0-inf) with dose ([1]; single oral doses 0.2-0.6 mg/kg): approximately dose proportionally; Papp [2]: 3.83 ×10⁻⁶ cm/s; TGI (%) (SNU-5; 3 mg/kg qd × 14 oral, p-value 0.0052): 54.2%; TGI (%) (SNU-5; [7]): 94.7%; histopathologic changes in female reproductive tract tissues ([3]; 10 mg/kg/day for 4 weeks, appeared reversible): increased size and number of regressing corpora lutea in ovarian tissue and a higher frequency of dilated uteri; hepatobiliary histologic findings ([3]; 10 mg/kg/day, 4 weeks, minimal to mild severity, fully reversible after 14-day recovery): bile duct inflammation and hyperplasia, and individual hepatocyte necrosis; increase in ALT [3, 8]: < 5 fold; increase in AST [3, 8]: < 2 fold; reversibility of adverse findings ([3]; 14-day non-treatment recovery period): partially or completely reversible; highest non-severely toxic dose (HNSTD) ([3]; GLP 4-week toxicity study, highest dose tested): 10 mg/kg qd; ophthalmic findings ([3]; daily for 4 weeks): No adverse ophthalmic findings; histomorphologic findings in bone and teeth ([3]; daily for 4 weeks, >3 mg/kg/day, persisted but less severe after 2-week recovery): increased physeal thickness of the femur and degeneration of the tooth dentin and enamel; nasal turbinate histologic findings ([3]; recovery cohort, 10 mg/kg/day 4 weeks + 14-day non-treatment, females minimal-moderate, males slight-moderate): proliferation of nasal turbinate bone; bone marrow microscopic findings ([3]; repeat-dose): minimal severity decreased bone marrow cellularity; cholesterol and triglyceride levels ([3]; repeat-dose): Increased cholesterol and triglyceride levels; reticulocytes ([3]; repeat-dose): transient decreases in reticulocytes; spleen findings ([3]; repeat-dose): Extramedullary hematopoiesis (minimal) and increased lymphocytes (minimal-slight); TGI (%) (MDA-MB-231; 3 mg/kg qd × 14 oral, p-value 0.0001): 73.6%; TGI (%) (MDA-MB-231; [7]): 78.6%; protein bound ([4]; 10 μM): 97.2%; fraction unbound ([4]; monkey, plasma, 0.2 and 1 μM): < 0.01; role in the metabolism of Compound 1 (CYP2D6): only a minor role; fraction unbound ([5]; dog): < 0.01; fraction unbound ([5]; mouse): < 0.01; fraction unbound ([5]; rat): < 0.01; pIC50 (hERG channel): ~5.40; CLint [6]: 0.601 mL/min/g liver; pEC50 (CYP2C8; human, fresh primary human hepatocytes, mRNA induction, read-out: half-maximal effective concentration (EC50)): 5.70; maximal induction effect (Emax) (CYP2C8; mRNA, 0.1-100 μM): 7 fold
